Reference: patent publication US20120083599A1 (UNIVERSITY OF NOTTINGHAM, priority 2009, published 2012)
Read-outs that look alike come from different tables or passages of the source.

Tests used:
[1] = target: biotin ligase (BirA) (Escherichia coli, UniProt P06709); experiment: Addition to acceptor peptide using BirA biotin ligase (HPLC); format: biochemical, E. coli; conditions: for Substrate for BirA: biotin ligase (BirA) from E. coli
[2] = target: T1, avidin (Gallus gallus, UniProt P02701); experiment: Binding affinity for avidin by isothermal titration calorimetry
T1 sequence (P02701 25-152, species assumed): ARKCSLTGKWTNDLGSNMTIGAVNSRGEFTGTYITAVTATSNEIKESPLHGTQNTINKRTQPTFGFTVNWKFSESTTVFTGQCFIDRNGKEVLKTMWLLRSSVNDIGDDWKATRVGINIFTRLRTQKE

[3] = target: T1, avidin; experiment: Binding to avidin after click chemistry attachment of a fluorophore (native gel)
Procedure: 2) With protein (avidin) present: 0.29 mL 2-azidiobiotin solution (3.5 mM in Buffer A) was diluted in 0.71 mL Buffer A, then 1 mL avidin solution (0.21 mM) was added. The mixed solution was put in a shaker (25° C., 100 rpm) for 1 h. Then 0.5 mL alkynyl tag solution (10 mM in dioxane), 0.5 mL CuSO4-TTA solution (10 mM in ^tBuOH:H2O (4:1) solvents), 0.2 mL TCEP.HCl solution (50 mM in H2O), 0.5 mL NaHCO3 solution (200 mM in H2O), 0.25 mL ^tBuOH, 1 mL H2O were added to the reaction mixture. The mixture was put on the shaker (25° C., 100 rpm) for 2 h, then stored at 4° C. Buffer A: pH 7.4 20 mM phosphate, 150 mM NaCl buffer.

[4] = test system: other biotin ligases; conditions: cited from earlier work
[5] = target: T2, biotin ligase (Saccharomyces cerevisiae, UniProt P48445); conditions: cited from earlier work
T2 sequence (P48445 1-690): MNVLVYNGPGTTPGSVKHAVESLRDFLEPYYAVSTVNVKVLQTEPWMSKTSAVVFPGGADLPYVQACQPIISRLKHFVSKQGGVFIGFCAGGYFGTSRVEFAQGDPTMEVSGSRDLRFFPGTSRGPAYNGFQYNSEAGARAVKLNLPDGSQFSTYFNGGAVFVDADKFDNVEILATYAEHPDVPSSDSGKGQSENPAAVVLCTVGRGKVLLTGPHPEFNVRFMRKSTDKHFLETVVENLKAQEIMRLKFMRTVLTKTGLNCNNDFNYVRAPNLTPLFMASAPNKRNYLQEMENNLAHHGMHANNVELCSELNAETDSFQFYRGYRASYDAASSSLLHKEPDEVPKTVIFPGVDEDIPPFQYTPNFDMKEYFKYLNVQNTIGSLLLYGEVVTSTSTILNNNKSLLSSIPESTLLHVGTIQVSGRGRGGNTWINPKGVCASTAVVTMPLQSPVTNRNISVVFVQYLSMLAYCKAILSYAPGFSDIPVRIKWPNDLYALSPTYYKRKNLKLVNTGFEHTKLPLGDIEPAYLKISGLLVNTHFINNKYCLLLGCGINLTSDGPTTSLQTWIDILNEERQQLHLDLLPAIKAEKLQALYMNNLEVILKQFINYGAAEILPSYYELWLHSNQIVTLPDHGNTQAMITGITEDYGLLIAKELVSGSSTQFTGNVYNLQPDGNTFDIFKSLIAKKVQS

[6] = test system: biotin ligase; conditions: cited from earlier work
[7] = target: BirA (Escherichia coli, UniProt P06709); conditions: cited from earlier work
Chain of BirA (P06709 whole entry): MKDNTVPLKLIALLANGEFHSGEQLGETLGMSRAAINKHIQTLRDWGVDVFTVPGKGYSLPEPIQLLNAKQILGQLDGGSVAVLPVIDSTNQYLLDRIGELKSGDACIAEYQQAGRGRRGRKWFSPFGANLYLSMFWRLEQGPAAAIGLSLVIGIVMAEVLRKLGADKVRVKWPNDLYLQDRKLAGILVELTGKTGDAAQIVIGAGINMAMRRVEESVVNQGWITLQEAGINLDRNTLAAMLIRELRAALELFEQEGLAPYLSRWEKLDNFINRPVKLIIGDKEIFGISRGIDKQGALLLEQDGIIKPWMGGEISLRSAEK

Chain of biotin ligase (BirA) (P06709 whole entry): as above

| Molecule | Substrate for BirA [1] | Affinity for avidin (in words) [2] | Binds to avidin [2] | Binds to avidin once covalently modified [3] | Substrate for other biotin ligases [4] | also measured |
| --- | --- | --- | --- | --- | --- | --- |
| 6-Azidodesthiobiotin | not substrates | low affinities | Very weak | No |  | Substrate for BirA ([1]; listed as E 6-azido-desthiobiotin): No |
| 8-Azidodesthiobiotin | not substrates | low affinities | Very weak | No | Yes | Substrate for BirA ([1]; listed as D 8-azido-desthiobiotin): No |
| [N-]=[N+]=NC(CCC[C@@H]1SC[C@@H]2NC(=O)N[C@@H]21)C(=O)O (stereo partly shown) [2-azidobiotin] | Yes | moderate-good affinity | Yes | able to binded to avidin |  | Level of conversion to acceptor peptide adduct by BirA, compared with biotin ([1]; HPLC, 30 C, 1 h): very similar to that of biotin; Kd ([2]; ITC, pH 7.4, 20 mM phosphate, 150 mM NaCl): ~100 nM; Binds to avidin once covalently modified ([3]; listed as 2 Azidobiotin): Yes |
| O=C(O)CCCC[C@@H]1SC[C@@H]2NC(=O)N[C@@H]21 [biotin] | Yes |  | Yes |  | Yes |  |
| C#CCN1C(=O)N[C@H]2CS[C@@H](CCCCC(=O)O)[C@H]21 [cis-propargyl biotin] | No |  | No/very weak | No | Yes | Substrate of Saccharomyces cerevisiae biotin ligase [5]: could utilise; Substrate of Pyrococcus horikoshii biotin ligase [6]: could use |
| C[C@@H]1NC(=O)N[C@@H]1CCCCCC(=O)O [desthiobiotin] |  |  |  |  |  | Substrate of Pyrococcus horikoshii biotin ligase [6]: could use |
| O=C(O)CCCC[C@@H]1SC[C@@H]2CC(=O)C[C@@H]21 [ketone biotin, Ketone biotin] | Yes |  |  | No |  | BirA ligation yield (product inhibition) [7]: ~50% |
